This is an account of results in article PMC10687071 (The Journal of Biological Chemistry, 2023).

In assay [1] the target is T1, ΔPAS mutant EAG1 channels (deletion of PAS domain residues 2 to 130) (Mus musculus, UniProt Q60603).
T1 construct: expressed in transfected cells; host or cells: Xenopus laevis oocytes injected with cRNA
T1 sequence (Q60603 with tags, fused parts or gaps): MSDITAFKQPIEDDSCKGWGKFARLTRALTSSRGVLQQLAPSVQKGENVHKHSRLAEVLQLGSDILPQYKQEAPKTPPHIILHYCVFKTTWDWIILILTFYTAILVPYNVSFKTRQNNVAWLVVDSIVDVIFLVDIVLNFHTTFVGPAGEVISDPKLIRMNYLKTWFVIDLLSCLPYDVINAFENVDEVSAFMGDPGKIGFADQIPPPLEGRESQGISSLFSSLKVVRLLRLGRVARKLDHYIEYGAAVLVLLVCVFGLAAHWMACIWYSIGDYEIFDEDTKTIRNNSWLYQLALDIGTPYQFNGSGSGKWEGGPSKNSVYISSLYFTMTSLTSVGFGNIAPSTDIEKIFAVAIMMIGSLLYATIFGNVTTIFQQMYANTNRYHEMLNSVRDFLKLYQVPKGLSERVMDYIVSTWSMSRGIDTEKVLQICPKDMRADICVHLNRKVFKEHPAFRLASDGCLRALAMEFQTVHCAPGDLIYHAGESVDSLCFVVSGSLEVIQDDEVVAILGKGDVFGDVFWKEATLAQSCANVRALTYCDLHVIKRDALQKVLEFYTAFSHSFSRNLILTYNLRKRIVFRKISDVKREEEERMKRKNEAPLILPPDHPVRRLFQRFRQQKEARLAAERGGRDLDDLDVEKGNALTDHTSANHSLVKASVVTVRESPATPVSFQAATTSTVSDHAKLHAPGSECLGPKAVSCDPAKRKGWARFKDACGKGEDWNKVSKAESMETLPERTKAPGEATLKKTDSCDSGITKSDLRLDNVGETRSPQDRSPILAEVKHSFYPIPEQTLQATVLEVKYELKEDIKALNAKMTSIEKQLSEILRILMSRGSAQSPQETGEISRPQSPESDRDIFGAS
The experiment in a line: TEVC recording, imipramine inhibition, ΔPAS mutant. The class given is cell-based. As to conditions: ΔPAS mutant EAG1 channel, +50 mV. From the text: (§1) The cDNA encoding wild-type (WT) mouse EAG1 channels in pGH19 vector was kindly provided by G. Robertson (University of Wisconsin-Madison, Madison, WI). The mutant ΔPAS EAG1 channel in pGH19 with the deletion of the PAS domain residues 2 to 130 was generated by Bio Basic Inc and verified by DNA sequencing (Genewiz). Mutant EAG1 channels with single amino acid substitutions were generated by Genewiz and verified by DNA sequencing. cRNA was transcribed using the T7 mMessage mMachine kit (Thermo Fisher Scientific). Defolliculated Xenopus laevis oocytes were purchased from Ecocyte Bioscience or Xenopus1 and injected with the cRNA using a Nanoinject II oocyte injector (Drummond).
(§2) For EAG1 current recordings, oocytes were placed into a handmade chamber containing a bath solution for the current recording. The currents were recorded using a TEVC technique with OC-725C amplifier (Warner Instruments) and pClamp11 software (Molecular Devices). The signals were digitized using Digidata 1550 (Molecular Devices). Patch pipettes were pulled from borosilicate glass and had resistances of 0.7 to 1.5 MΩ. The recording (bath) solution contained 96 mM NaCl, 4 mM KCl, 0.1 mM CaCl2, 1.8 mM MgCl2, and 5 mM HEPES, pH 7.5. The pipette solution contained 3 M KCl. […]

In assay [2] the target is T2, Y71R mutant EAG1 channels (Mus musculus, UniProt Q60603, Y71R).
T2 construct: expressed in transfected cells; host or cells: Xenopus laevis oocytes injected with cRNA
T2 sequence (Q60603 1-989 Y71R): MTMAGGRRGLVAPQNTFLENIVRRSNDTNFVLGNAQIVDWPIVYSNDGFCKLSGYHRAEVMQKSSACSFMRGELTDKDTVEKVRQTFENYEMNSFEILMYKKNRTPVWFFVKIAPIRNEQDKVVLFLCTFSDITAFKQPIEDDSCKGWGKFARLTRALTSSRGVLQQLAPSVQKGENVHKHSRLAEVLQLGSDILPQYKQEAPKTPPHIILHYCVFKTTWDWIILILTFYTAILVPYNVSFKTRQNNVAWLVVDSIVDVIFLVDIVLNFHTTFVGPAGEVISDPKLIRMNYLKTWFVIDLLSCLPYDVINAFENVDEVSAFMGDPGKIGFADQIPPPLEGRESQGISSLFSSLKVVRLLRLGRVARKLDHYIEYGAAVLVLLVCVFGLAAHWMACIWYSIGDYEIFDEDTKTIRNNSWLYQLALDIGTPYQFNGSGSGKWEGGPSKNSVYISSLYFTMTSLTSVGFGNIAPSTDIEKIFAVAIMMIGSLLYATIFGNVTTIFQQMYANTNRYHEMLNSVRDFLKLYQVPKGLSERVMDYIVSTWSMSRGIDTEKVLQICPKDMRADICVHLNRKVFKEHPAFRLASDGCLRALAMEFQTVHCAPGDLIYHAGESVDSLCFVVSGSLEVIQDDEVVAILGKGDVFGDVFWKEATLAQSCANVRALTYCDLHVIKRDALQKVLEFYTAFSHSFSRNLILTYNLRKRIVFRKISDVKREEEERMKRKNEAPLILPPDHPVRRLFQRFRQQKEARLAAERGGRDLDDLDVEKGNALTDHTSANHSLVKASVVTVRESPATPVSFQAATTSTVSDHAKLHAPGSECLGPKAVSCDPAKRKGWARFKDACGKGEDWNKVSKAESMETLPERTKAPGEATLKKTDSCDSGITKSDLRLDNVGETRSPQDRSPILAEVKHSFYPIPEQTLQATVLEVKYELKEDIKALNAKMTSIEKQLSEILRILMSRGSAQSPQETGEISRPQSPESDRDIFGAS
The experiment in a line: TEVC recording, imipramine inhibition, Y71R mutant. As to conditions: Y71R mutant EAG1 channel, +50 mV. Format: cell-based.
Description: as §1, §2

For assay [3], the system named is EAG1 channels. The following applies: HEK293, whole-cell configuration; read-out: IC50 for EAG1 currents recorded from HEK293 in the whole-cell configuration; cited from earlier work.

Take `CN(C)CCCN1c2ccccc2CCc2ccccc21` [imipramine]: the IC50 in assay [1] is 109 ± 12.6 µM; in assay [2] it was 43.4 ± 7.5 µM; in assay [3], roughly 2 µM.
